We go through 3 molecules from US5747235A, “Silver halide light sensitive emulsion layer having enhanced photographic sensitivity” (Eastman Kodak Company, priority 1996, dated 1998).

Data set [1] can be described thus: fragmentation rate constant kfr by laser flash photolysis. The class given is physicochemical. Particulars: Table H; model compound, A and L replaced by alkyl. An excerpt:
The kinetics of the bond cleavage or fragmentation reaction can be measured by conventional laser flash photolysis. […] The specific experimental apparatus we used to measure fragmentation rate constants and radical oxidation potentials is described in detail below.
(b) Fragmentation Rate Constant Determination
These absorptions were used to determine the kinetics of the fragmentation reactions of the radical cations of the X-Y. Excitation of 9,10-dicyanoanthracene (DCA) in the presence of biphenyl and the X-Y donor, as described above, results in the formation of the DCA^.cndot.- and the X-Y^.cndot.+. By using a concentration of X-Y of ca. 10^-2 M, the X-Y^.cndot.+ can be formed within ca. 20 ns of the laser pulse. […] The monitoring wavelengths used were somewhat different for the different donors, but were mostly around 470-530 nm. […] Alternatively, when the decay rate of the X-Y^.cndot.+ was less than 10^6 s^-1, the solutions were purged with oxygen.
The experiments measuring the fragmentation rate constants were performed in acetonitrile with the addition of 20% water, so that all of the salts could be easily solubilized. Most experiments were performed at room temperature. […] When this happened, the fragmentation rate constants were measured as a function of temperature, and the rate constant at room temperature determined by extrapolation.

Data set [2] in a line: oxidation potential E1 by cyclic voltammetry. It is filed as physicochemical. As to conditions: for E1 (V) for XY moiety: Table H, model compound, A and L replaced by alkyl; for E1 (V): Table V. As for the experimental part:
Oxidation potentials are well known and can be found, for example, in "Encyclopedia of Electrochemistry of the Elements", Organic Section, Volumes XI-XV, A. Bard and H. Lund (Editors) Marcel Dekker Inc., NY. (1984). E1 can be measured by the technique of cyclic voltammetry. In this technique, the electron donating compound is dissolved in a solution of 80%/20% by volume acetonitrile to water containing 0.1M lithium perchlorate. Oxygen is removed from the solution by passing nitrogen gas through the solution for 10 minutes prior to measurement. A glassy carbon disk is used for the working electrode, a platinum wire is used for the counter electrode, and a saturated calomel electrode (SCE) is used for the reference electrode. Measurement is conducted at 25° C. using a potential sweep rate of 0.1 V/sec. The oxidation potential vs. SCE is taken as the peak potential of the cyclic voltammetric wave.

Data set [3] can be described thus: oxidation potential E2 of radical X by laser flash photolysis. It is filed as physicochemical. Particulars: Table H; model compound, A and L replaced by alkyl. From the text: In this technique, the compound X-Y is oxidized by an electron transfer reaction initiated by a short laser pulse. The oxidized form of X-Y then undergoes the bond cleavage reaction to give the radical X^.cndot.. X^.cndot. is then allowed to interact with various electron acceptor compounds of known reduction potential. […] The experimental details are set forth more fully below. The oxidation potentials (E2) for radicals X^.cndot. for typical compounds useful in accordance with our invention are given in Table C. Where only limits on potentials could be determined, the following notation is used: <-0.90 V should be read as "more negative than -0.90 V" and >-0.40 V should be read as "less negative than -0.40 V".
(a) Oxidation Potential of Radical X.cndot.
The laser flash photolysis measurements were performed using a nanosecond pulsed excimer (Questek model 2620, 308 nm, ca. 20 ns, ca. 100 mJ) pumped dye laser (Lambda Physik model FL 3002). The laser dye was DPS (commercially available from Exciton Co.) in p-dioxane (410 nm, ca. 20 ns, ca. 10 mJ). The analyzing light source was a pulsed 150W xenon arc lamp (Osram XBO 150/W). The arc lamp power supply was a PRA model 302 and the pulser was a PRA model M-306. The pulser increased the light output by ca. 100 fold, for a time period of ca. 2-3 ms. The analyzing light was focussed through a small aperture (ca. 1.5 mm) in a cell holder designed to hold 1 cm^2 cuvettes. The laser and analyzing beams irradiated the cell from opposite directions and crossed at a narrow angle (ca. 15°). After leaving the cell, the analyzing light was collimated and focussed onto the slit (1 mm, 4 nm bandpass) of an ISA H-20 monochromator. The light was detected using 5 dynodes of a Hamamatsu model R446 photomultiplier. The output of the photomultiplier tube was terminated into 50 ohm, and captured using a Tektronix DSA-602 digital oscilloscope. The entire experiment is controlled from a personal computer.
The experiments were performed either in acetonitrile, or a mixture of 80% acetonitrile and 20% water. The first singlet excited state of a cyanoanthracene (A), which acted as the electron acceptor, was produced using the nanosecond laser pulse at 410 nm. […] Secondary electron transfer then occurred between B^.cndot.+ and the lower oxidation potential electron donor X-Y, to generate X-Y^.cndot.+ in high yield. For the investigations of the oxidation potentials of the radicals X^.cndot., typically the cyanoanthrancene concentration was ca. 2×10^-5 M to 10^-4 M the biphenyl concentration was ca. 0.1M. The concentration of the X-Y donor was ca. 10^-3 M. The rates of the electron transfer reactions are determined by the concentrations of the substrates. The concentrations used ensured that the A^.cndot.- and the X-Y^.cndot.+ were generated within 100 ns of the laser pulse. The radical ions could be observed directly by means of their visible absorption spectra. The kinetics of the photogenerated radical ions were monitored by observation of the changes in optical density at the appropriate wavelengths.
The reduction potential (Ered) of 9,10-dicyanoanthracene (DCA) is -0.91 V. In a typical experiment, DCA is excited and the initial photo-induced electron transfer from the biphenyl (B) to the DCA forms a DCA^.cndot.-, which is observed at its characteristic absorption maximum (λobs =705 nm), within ca. 20 ns of the laser pulse. Rapid secondary electron transfer occurs from X-Y to B^.cndot.+ to generate X-Y^.cndot.+, which fragments to give X^.cndot.. A growth in absorption is then observed at 705 nm with a time constant of ca. 1 microsecond, due to reduction of a second DCA by the X^.cndot.. The absorption signal with the microsecond growth time is equal to the size of the absorption signal formed within 20 ns.
If the oxidation potential of X^.cndot. is not sufficiently negative to reduce DCA, an estimate of its oxidation potential was obtained by using other cyanoanthracenes as acceptors. […]

Data set [4] in a line: Example 5: photographic speed and fog, 365 nm exposure, fragmenting vs non-fragmenting one-electron donors, emulsion T-2. On the set-up: Fog: unit not given here. Particulars: for sensitivity and fog change: undyed T-2 emulsion. As for the experimental part:
(§1) For photographic evaluation, each of the coating strips was exposed for 0.1 sec to a 365 nm emission line of a Hg lamp filtered through a Kodak Wratten filter number 18A and a step wedge ranging in density from 0 to 4 density units in 0.2 density steps. The exposed film strips were developed for 6 min in Kodak Rapid X-ray Developer (KRX). S365, relative sensitivity at 365 nm, was evaluated at a density of 0.2 units above fog.
An AgBrI tabular silver halide emulsion (Emulsion T-2) was prepared containing 4.05% total I distributed such that the central portion of the emulsion grains contained 1.5% I and the perimeter area contained substantially higher I, as described by Chang et. al., U.S. Pat. No. 5,314,793. […] This emulsion was precipitated using deionized gelatin. The emulsion was sulfur sensitized by adding 8.5×10^-6 mole 1,3-dicarboxymethyl-1,3-dimethyl-2-thiourea /mole Ag at 40° C.; the temperature was then raised to 60° C. at a rate of 5° C./3 min and the emulsions held for 20 min before cooling to 40° C. The chemically sensitized emulsion was then used to prepare coatings containing the fragmentable two-electron donor compounds. […] Where present, the blue sensitizing dye D-I or the red sensitizing dye D-II were added from methanol solution to the emulsion at 40° C. after the chemical sensitization and disulfocatechol addition. The fragmentable two-electron donor compounds were added to the emulsion at 40° C. and the coatings were prepared and tested as described in Example 1, except that the additional gelatin used to prepare the coatings described in Table III was deionized gelatin.
Where present, the sensitizing dye D-II was added from methanol solution to the emulsion at 40° C. after the chemical sensitization but before the addition of the one-electron donating compound. The coatings were tested for their response to a 365 nm exposure as described in Example 1. For this exposure, the relative sensitivity was set equal to 100 for the control coating with no one-electron donating compound added.

A short description of data set [5]: Example 9: photographic speed and fog, 365 nm exposure, red dyed emulsion T-2. As to conditions: for Fog / S365: dye II 0.86 x10^-3; for S365: undyed control=100, dyed control 62. As for the experimental part: as §1
An AgBrI tabular silver halide emulsion (Emulsion T-2) was prepared containing 4.05% total I distributed such that the central portion of the emulsion grains contained 1.5% I and the perimeter area contained substantially higher I, as described by Chang et. al., U.S. Pat. No. 5,314,793. […] This emulsion was precipitated using deionized gelatin. The emulsion was sulfur sensitized by adding 8.5×10^-6 mole 1,3-dicarboxymethyl-1,3-dimethyl-2-thiourea /mole Ag at 40° C.; the temperature was then raised to 60° C. at a rate of 5° C./3 min and the emulsions held for 20 min before cooling to 40° C. The chemically sensitized emulsion was then used to prepare coatings containing the fragmentable two-electron donor compounds. All of the experimental coating variations in Table III contained the hydroxybenzene 2,4-disulfocatechol (HB3) at a concentration of 13 mmole/ mole Ag, added to the melt before the addition of any further addenda. Where present, the blue sensitizing dye D-I or the red sensitizing dye D-II were added from methanol solution to the emulsion at 40° C. after the chemical sensitization and disulfocatechol addition. The fragmentable two-electron donor compounds were added to the emulsion at 40° C. and the coatings were prepared and tested as described in Example 1, except that the additional gelatin used to prepare the coatings described in Table III was deionized gelatin.
The sulfur sensitized AgBrI tabular emulsion T-2 as described in Example 3 was used to prepare coatings of the fragmentable two-electron donors S-15, S-14, S-13, and S-11, as described in Table IX. All of the experimental coating variations in Table IX contained the hydroxybenzene, 2,4-disulfocatechcol (HB3) at a concentration of 13 mmole/mole Ag, added to the melt before any further addenda. Where present, the red sensitizing dye D-II was added from methanol solution to the emulsion at 40° C. after the chemical sensitization and disulfocatechol addition. The fragmentable two-electron donor compounds were then added to the emulsion and coatings prepared and tested as described in Example I, except that the additional gelatin used to prepare the coatings described in Table IX was deionized gelatin.

The mark [6] stands for this setting: 0.044 x10^-3 mole/mole Ag, dye D-II 0.86 x10^-3.
Setting [7] is: 0.044 x10^-3 mole/mole Ag, dye D-II 0.86 x10^-3, dyed control 69.
[8] abbreviates: 0.044 x10^-3 mole/mole Ag, no dye, no HB3.
Setting [9] is: 0.044 x10^-3 mole/mole Ag, no dye, no HB3, control=100.
Setting [10] is: 0.14 x10^-3 mole/mole Ag, dye D-II 0.86 x10^-3.
Where [11] appears, read: 0.14 x10^-3 mole/mole Ag, dye D-II 0.86 x10^-3, dyed control 69.
The mark [12] stands for this setting: 0.14 x10^-3 mole/mole Ag, no dye, no HB3.
Where [13] appears, read: 0.14 x10^-3 mole/mole Ag, no dye, no HB3, control=100.

For `CCSCCN(CCSCC)c1ccc(CC(=O)O)cc1` [Compound S-17, Sodium 2-(4-N,N-bis(ethylthioethyl)aminophenyl)acetate], in data set [1], the “kfr (s^-1) for XY moiety” value is given as “≈ 3 × 10^5 s^-1”. For the same molecule, in data set [2], the “E1 (V) for XY moiety” value was found to be 0.57 V. In addition, in data set [2], the “E1 (V)” value is 0.62 V. Also, in data set [3], the “E2 (V) for XY moiety” value was less than -0.5 V. The Fog in data set [4] (setting [6]) worked out at 0.11; in data set [4] (setting [8]) it was 0.05; in data set [4] (setting [10]), 0.11; in data set [4] (setting [12]), 0.06. Besides, the S365 in data set [4] (setting [7]) is listed as 80; in data set [4] (setting [9]), 110; in data set [4] (setting [11]) it was 89; in data set [4] (setting [13]), 120. For the same molecule, the “sensitivity and fog change” value in data set [4] is on record as “increased the 365 nm sensitivity of the undyed emulsion”.

With `CCSCCNC(=O)CCN(CC)c1ccc(CC(=O)O)cc1` [Compound S-18], in data set [1], the “kfr (s^-1) for XY moiety” value is reported as “≈ 3 × 10^5 s^-1”. For the same molecule, in data set [2], the “E1 (V) for XY moiety” value is listed as 0.57 V. For the same molecule, the “E1 (V)” value in data set [2] is given as 0.68 V. For the same molecule, the “E2 (V) for XY moiety” value in data set [3] is listed as less than -0.5 V. Besides, the Fog worked out at 0.05 in data set [4] (setting [6]), 0.05 in data set [4] (setting [8]), 0.06 in data set [4] (setting [10]) and 0.06 in data set [4] (setting [12]). Also, the S365 came to 95 in data set [4] (setting [7]), 135 in data set [4] (setting [9]), 107 in data set [4] (setting [11]) and 148 in data set [4] (setting [13]). Further, the “sensitivity and fog change” value in data set [4] is given as “increased the 365 nm sensitivity of the undyed emulsion”.

In data set [5] (0.007 x10^-3 mol/mol Ag), “N-(4-Carboxyethylphenyl)-N-(2-thioethyl-ethyl)alanine sodium salt [Compound S-15]” displayed a Fog of 0.13 and an S365 of 95. In data set [5] (0.022 x10^-3 mol/mol Ag), this molecule had a Fog of 0.23 and an S365 of 105. Besides, in data set [5] (dye D-II), the “365 nm sensitivity of dyed emulsion” value was “restored to that of the undyed emulsion”.
